Test results: patent US11572399B2, “Long-acting GIP peptide analogues” (University of Copenhagen, priority 2017, dated 2023)
Peptide text beside a SMILES is read from it. * marks the point of attachment. C16 diacid = O=C(O)CCCCCCCCCCCCCCC(=O)*; Palmitoyl = CCCCCCCCCCCCCCCC(=O)*

Experiments:
human GIP receptor [1] = molecular target: T1, human GIP receptor (Homo sapiens, UniProt P48546); test: cAMP accumulation assay, antagonism of a GIP-mediated cAMP response (50-80% of max); type: cell-based; conditions: for cAMP - antagonisme fold (paired): fold vs GIP(3-30)NH2
T1 construct: host or cells: COS-7, transient transfection (calcium phosphate), cDNA in pCMV-Script
T1 sequence (P48546 22-466): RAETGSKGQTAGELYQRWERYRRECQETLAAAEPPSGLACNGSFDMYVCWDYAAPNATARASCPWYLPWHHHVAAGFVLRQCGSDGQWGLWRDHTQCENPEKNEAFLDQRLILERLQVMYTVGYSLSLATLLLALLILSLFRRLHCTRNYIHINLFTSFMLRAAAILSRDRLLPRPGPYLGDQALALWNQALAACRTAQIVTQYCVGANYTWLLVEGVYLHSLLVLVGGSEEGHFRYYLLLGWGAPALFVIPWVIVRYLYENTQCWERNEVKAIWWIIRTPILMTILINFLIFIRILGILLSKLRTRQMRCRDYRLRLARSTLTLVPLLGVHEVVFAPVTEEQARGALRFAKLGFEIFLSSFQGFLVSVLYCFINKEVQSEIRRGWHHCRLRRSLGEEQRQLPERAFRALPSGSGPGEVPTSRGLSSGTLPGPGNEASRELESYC
Procedure: The day after, the cells were washed twice with Hepes buffered saline (HBS) buffer and incubated with HBS and 1 mM 3-isobutyl-1-methylxanthine (IBMX) for 30 min at 37° C. […] The HitHunter™ cAMP XS assay (DiscoveRx) was carried out according to the manufacturer's instructions.

human GIP receptor [2] = molecular target: T1, human GIP receptor; test: cAMP accumulation assay, agonism (ligand alone); type: cell-based; conditions: COS-7 cells, Table 1; for Emax: COS-7, intrinsic cAMP activity; for EC50: read-out: cAMP agonism nM (EC50)
human GIP receptor [3] = molecular target: T1, human GIP receptor; test: 125I-human GIP competition binding assay, in the presence and absence of 2% HSA; conditions: for Binding fold (paired): fold decrease in affinity compared to GIP(3-30)NH2; for Fold change HSA (2%)/Casein (0.1%): IC50 (plus HSA)/IC50 (minus HSA); for Fold change in affinity, IC50 (plus HSA)/IC50 (minus HSA): presence vs absence of 2% HSA, proxy for albumin binding;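 on all read-outs here: nonspecific binding taken as radioligand bound to untransfected cells, IC50 obtained from nonlinear regression fits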
[4] = Table 3b, initial data, read-out: Binding IC50
[5] = heterologous competition binding, transiently transfected COS-7 cells expressing the human GIP receptor, read-out: Binding
[6] = given as log IC50 (negative sign), transiently transfected COS-7 cells, Table 1, read-out: cAMP antagonism log (converted)
[7] = transiently transfected COS-7 cells, Table 1 and text, read-out: cAMP antagonism nM (IC50, antagonistic potency)
[8] = binding in presence of 2% HSA, read-out: logIC50 2% HSA (converted)
[9] = binding in 0.1% casein (absence of HSA), log value, read-out: logIC50 0.1% casein (converted)

| SMILES | cAMP - antagonisme fold (paired) (human GIP receptor [1]; Table 3b) | Emax (human GIP receptor [2]) | IC50 (human GIP receptor [3]; [4]) | Binding fold (paired) (human GIP receptor [3]; Table 3b) | IC50 (human GIP receptor [3]; [5]) | IC50 (human GIP receptor [1]; [7]) | Fold change HSA (2%)/Casein (0.1%) (human GIP receptor [3]) | further results |
| --- | --- | --- | --- | --- | --- | --- | --- | --- |
| CCCCCCCCCCCCCCCC(=O)NCCCC[C@H](NC(=O)[C@H](CCC(=O)O)NC(=O)[C@H](CCSC)NC(=O)[C@H](C)NC(=O)[C@@H](NC(=O)[C@H](CO)NC(=O)[C@H](Cc1ccc(O)cc1)NC(=O)[C@H](CC(=O)O)NC(=O)[C@H](CO)NC(=O)[C@@H](NC(=O)[C@H](Cc1ccccc1)NC(=O)[C@H](Cc1c[nH]c2ccccc12)NC(=O)CNC(=O)[C@@H](N)CCC(=O)O)[C@@H](C)CC)[C@@H](C)CC)C(=O)N[C@H](C(=O)N[C@@H](C)C(=O)N[C@@H](CCC(N)=O)C(=O)N[C@@H](CCC(N)=O)C(=O)N[C@@H](CC(=O)O)C(=O)N[C@@H](Cc1ccccc1)C(=O)N[C@H](C(=O)N[C@@H](CC(N)=O)C(=O)N[C@@H](Cc1c[nH]c2ccccc12)C(=O)N[C@@H](CC(C)C)C(=O)N[C@@H](CC(C)C)C(=O)N[C@@H](C)C(=O)N[C@@H](CCC(N)=O)C(=O)N[C@@H](CCCCN)C(N)=O)C(C)C)[C@@H](C)CC [AT107, [hGIP(3-30)NH2[T5W; D15E; H18A]-C16/16]] (H-EGWFISDYSIAMEK(Palmitoyl)IAQQDFVNWLLAQK-NH2; N-terminus assumed) | 3.1 fold | 23% | 5220 nM | 186 fold | 5220 nM |  |  | EC50 (human GIP receptor [2]): 1300 nM |
| CCCCCCCCCCCCCC(=O)NCCCC[C@H](NC(=O)[C@H](CC(=O)O)NC(=O)[C@H](CCSC)NC(=O)[C@H](C)NC(=O)[C@@H](NC(=O)[C@H](CO)NC(=O)[C@H](Cc1ccc(O)cc1)NC(=O)[C@H](CC(=O)O)NC(=O)[C@H](CO)NC(=O)[C@@H](NC(=O)[C@H](Cc1ccccc1)NC(=O)[C@@H](NC(=O)CNC(=O)[C@@H](N)CCC(=O)O)[C@@H](C)O)[C@@H](C)CC)[C@@H](C)CC)C(=O)N[C@H](C(=O)N[C@@H](Cc1c[nH]cn1)C(=O)N[C@@H](CCC(N)=O)C(=O)N[C@@H](CCC(N)=O)C(=O)N[C@@H](CC(=O)O)C(=O)N[C@@H](Cc1ccccc1)C(=O)N[C@H](C(=O)N[C@@H](CC(N)=O)C(=O)N[C@@H](Cc1c[nH]c2ccccc12)C(=O)N[C@@H](CC(C)C)C(=O)N[C@@H](CC(C)C)C(=O)N[C@@H](C)C(=O)N[C@@H](CCC(N)=O)C(=O)N[C@@H](CCCCN)C(N)=O)C(C)C)[C@@H](C)CC [AT111, [hGIP(3-30)NH2—C14/16]] | 3.3 fold | 0% | 261 nM | 31 fold | 261 nM | 22 nM | 5.1 | IC50 (human GIP receptor [1]; [6]): 25.1 nM; IC50 (human GIP receptor [3]; 0.1% casein, no HSA, Table 3b, read-out: Binding logIC50 0.1% casein (converted)): 407 nM; IC50 (human GIP receptor [3]; 2% HSA, Table 3b, read-out: Binding logIC50 2% HSA (converted)): 2090 nM; IC50 (human GIP receptor [3]; [8]): 2090 nM; Fold change in affinity, IC50 (plus HSA)/IC50 (minus HSA) (human GIP receptor [3]): 5.1 fold |
| CCCCCCCCCCCCCCCCCC(=O)NCCCC[C@H](NC(=O)[C@H](CC(=O)O)NC(=O)[C@H](CCSC)NC(=O)[C@H](C)NC(=O)[C@@H](NC(=O)[C@H](CO)NC(=O)[C@H](Cc1ccc(O)cc1)NC(=O)[C@H](CC(=O)O)NC(=O)[C@H](CO)NC(=O)[C@@H](NC(=O)[C@H](Cc1ccccc1)NC(=O)[C@@H](NC(=O)CNC(=O)[C@@H](N)CCC(=O)O)[C@@H](C)O)[C@@H](C)CC)[C@@H](C)CC)C(=O)N[C@H](C(=O)N[C@@H](Cc1c[nH]cn1)C(=O)N[C@@H](CCC(N)=O)C(=O)N[C@@H](CCC(N)=O)C(=O)N[C@@H](CC(=O)O)C(=O)N[C@@H](Cc1ccccc1)C(=O)N[C@H](C(=O)N[C@@H](CC(N)=O)C(=O)N[C@@H](Cc1c[nH]c2ccccc12)C(=O)N[C@@H](CC(C)C)C(=O)N[C@@H](CC(C)C)C(=O)N[C@@H](C)C(=O)N[C@@H](CCC(N)=O)C(=O)N[C@@H](CCCCN)C(N)=O)C(C)C)[C@@H](C)CC [AT114, [hGIP(3-30)NH2—C18/16]] | 2.3 fold | 39% | 102 nM | 6.7 fold |  |  | 11.2 | IC50 (human GIP receptor [1]; Table 3b, initial data, read-out: cAMP - antagonisme IC50): 29.2 nM; IC50 (human GIP receptor [1]; [6]): 63.1 nM; IC50 (human GIP receptor [3]; [9]): 501 nM; Fold change in affinity, IC50 (plus HSA)/IC50 (minus HSA) (human GIP receptor [3]): 7.7 fold |
| CCCCCCCCCCCC(=O)N[C@H](C(=O)N[C@@H](Cc1ccccc1)C(=O)N[C@H](C(=O)N[C@@H](CO)C(=O)N[C@@H](CC(=O)O)C(=O)N[C@@H](Cc1ccc(O)cc1)C(=O)N[C@@H](CO)C(=O)N[C@H](C(=O)N[C@@H](C)C(=O)N[C@@H](CCSC)C(=O)N[C@@H](CC(=O)O)C(=O)N[C@@H](CCCCN)C(=O)N[C@H](C(=O)N[C@@H](Cc1c[nH]cn1)C(=O)N[C@@H](CCC(N)=O)C(=O)N[C@@H](CCC(N)=O)C(=O)N[C@@H](CC(=O)O)C(=O)N[C@@H](Cc1ccccc1)C(=O)N[C@H](C(=O)N[C@@H](CC(N)=O)C(=O)N[C@@H](Cc1c[nH]c2ccccc12)C(=O)N[C@@H](CC(C)C)C(=O)N[C@@H](CC(C)C)C(=O)N[C@@H](C)C(=O)N[C@@H](CCC(N)=O)C(=O)N[C@@H](CCCCN)C(N)=O)C(C)C)[C@@H](C)CC)[C@@H](C)CC)[C@@H](C)CC)[C@@H](C)O [AT118, [hGIP(5-30)NH2—C12/5]] |  | 0% |  |  | 102 nM | 29 nM | 7.7 | Ability to antagonize the GIP-mediated cAMP response (in words) (human GIP receptor [1]): high potent antagonists; Affinity compared to GIP(3-30)NH2 (in words) (human GIP receptor [3]): affinities in the same range as GIP(3-30)NH2; IC50 (human GIP receptor [3]; [9]): 126 nM; IC50 (human GIP receptor [3]; [8]): 881 nM |
| CC[C@H](C)[C@H](NC(=O)[C@H](CO)NC(=O)[C@H](Cc1ccc(O)cc1)NC(=O)[C@H](CC(=O)O)NC(=O)[C@H](CO)NC(=O)[C@@H](NC(=O)[C@H](Cc1ccccc1)NC(=O)[C@@H](NC(=O)CNC(=O)[C@@H](N)CCC(=O)O)[C@@H](C)O)[C@@H](C)CC)C(=O)N[C@@H](C)C(=O)N[C@@H](CCSC)C(=O)N[C@@H](CC(=O)O)C(=O)N[C@@H](CCCCN)C(=O)N[C@H](C(=O)N[C@@H](Cc1c[nH]cn1)C(=O)N[C@@H](CCC(N)=O)C(=O)N[C@@H](CCC(N)=O)C(=O)N[C@@H](CCCCNC(=O)CCCCCCCCCCCCCCC(=O)O)C(=O)N[C@@H](Cc1ccccc1)C(=O)N[C@H](C(=O)N[C@@H](CC(N)=O)C(=O)N[C@@H](Cc1c[nH]c2ccccc12)C(=O)N[C@@H](CC(C)C)C(=O)N[C@@H](CC(C)C)C(=O)N[C@@H](C)C(=O)N[C@@H](CCC(N)=O)C(=O)N[C@@H](CCCCN)C(N)=O)C(C)C)[C@@H](C)CC [AT310, [hGIP(3-30)NH2[D21K]-C16diacid/21]] (H-EGTFISDYSIAMDKIHQQK(C16 diacid)FVNWLLAQK-NH2; N-terminus assumed) |  | 6.2% |  |  |  | 49 nM |  |  |
| CC[C@H](C)[C@H](NC(=O)[C@H](CO)NC(=O)[C@H](Cc1ccc(O)cc1)NC(=O)[C@H](CC(=O)O)NC(=O)[C@H](CO)NC(=O)[C@@H](NC(=O)[C@H](Cc1ccccc1)NC(=O)[C@@H](NC(=O)CNC(=O)[C@@H](N)CCC(=O)O)[C@@H](C)O)[C@@H](C)CC)C(=O)N[C@@H](C)C(=O)N[C@@H](CCSC)C(=O)N[C@@H](CC(=O)O)C(=O)N[C@@H](CCCCN)C(=O)N[C@H](C(=O)N[C@@H](Cc1c[nH]cn1)C(=O)N[C@@H](CCC(N)=O)C(=O)N[C@@H](CCC(N)=O)C(=O)N[C@@H](CC(=O)O)C(=O)N[C@@H](Cc1ccccc1)C(=O)N[C@H](C(=O)N[C@@H](CC(N)=O)C(=O)N[C@@H](Cc1c[nH]c2ccccc12)C(=O)N[C@@H](CC(C)C)C(=O)N[C@@H](CC(C)C)C(=O)N[C@@H](C)C(=O)N[C@@H](CCCCNC(=O)CCCCCCCCCCCCCCC(=O)O)C(=O)N[C@@H](CCCCN)C(N)=O)C(C)C)[C@@H](C)CC [AT318, [hGIP(3-30)NH2[Q29K]-C16diacid/29]] (H-EGTFISDYSIAMDKIHQQDFVNWLLAK(C16 diacid)K-NH2; N-terminus assumed) |  | 10.8% |  |  |  | 224 nM |  | EC50 (human GIP receptor [2]): 131 nM |
| CC[C@H](C)[C@H](NC(=O)[C@H](CO)NC(=O)[C@H](Cc1ccc(O)cc1)NC(=O)[C@H](CC(=O)O)NC(=O)[C@H](CO)NC(=O)[C@@H](NC(=O)[C@H](Cc1ccccc1)NC(=O)[C@@H](NC(=O)CNC(=O)[C@@H](N)CCC(=O)O)[C@@H](C)O)[C@@H](C)CC)C(=O)N[C@@H](C)C(=O)N[C@@H](CCSC)C(=O)N[C@@H](CC(=O)O)C(=O)N[C@@H](CCCCNC(=O)CCCCCCCCCCCCCCC(=O)O)C(=O)N[C@H](C(=O)N[C@@H](Cc1c[nH]cn1)C(=O)N[C@@H](CCC(N)=O)C(=O)N[C@@H](CCC(N)=O)C(=O)N[C@@H](CC(=O)O)C(=O)N[C@@H](Cc1ccccc1)C(=O)N[C@H](C(=O)N[C@@H](CC(N)=O)C(=O)N[C@@H](Cc1c[nH]c2ccccc12)C(=O)N[C@@H](CC(C)C)C(=O)N[C@@H](CC(C)C)C(=O)N[C@@H](C)C(=O)N[C@@H](CCC(N)=O)C(=O)N[C@@H](CCCCN)C(N)=O)C(C)C)[C@@H](C)CC [AT370, [hGIP(3-30)NH2—C16diacid/16]] |  |  |  |  |  | 25 nM |  | cAMP agonism Emax (human GIP receptor [2]; intrinsic cAMP activity): no ag. |
